Residues, ends and D or L forms follow the SMILES beside them.
Tests used:
anti-EBNA antibodies = assay: ELISA with polypeptide as solid phase antigen, anti-polypeptide activity of sera (OD405); format: binding, human; conditions: for OD405 × 10^3 obtained with Patient Antibodies to peptide: serum 1:20
Experimental: Briefly, microtiter wells (Costar, #3590, Cambridge, MA) were typically coated with individual polypeptides as antigens by adding 100 microliters (ul) of BBS [10 millimoler (mM) sodium borate (pH 8.3), 150 mM NaCl] containing polypeptide at a concentration of 10 micrograms per milliliter (ug/ml). Contact between the wells and antigen-containing solution was maintained for a predetermined time, typically 15 minutes, and at 20 degrees C., to form an antigen-coated solid phase. The solid and liquid phases were separated and the wells were washed three times with BBS.
Non-specific binding sites were blocked by admixing 200 microliters of 1% bovine serum albumin (BSA) in each well to form another solid/liquid phase admixture, and maintaining that solid/liquid phase admixture for 30 minutes, at 20 degrees C. The phases were separated and excess, unbound BSA was removed by washing three times with BBS.
The antibodies in human sera that immunoreacted with an adsored polypeptide were detected using an indicating means comprising alkaline phosphatase-conjugated goat anti-human Ig antibody (Tago, Burlington, Calif.). The antibodies in rabbit sera that immunoreacted with an adsorbed polypeptide were detected using an indicating means comprising alkaline phosphatase-conjugated goat anti-rabbit Ig antibody (Kirkegard & Perry Laboratories, Inc., Gaithersburg, MD). In either instance, 100 microliters of the indicating antibody diluted 1:300 in BBS were added per well to form a further solid/liquid phase composition. This solid-liquid phase composition was maintained for a predetermined time, one hour, for the formation of a reaction product between the human antibodies bound to the solid phase and the indicating means, and at 20 degrees C. The phases were separated, and the solid phase was washed 3 times with BBS.
Alkaline phosphatase-conjugated antibody bound to polypeptide specific antibody was detected by spectrophotometrically measuring the enzymatic hydrolysis of p-nitrophenyl phosphate to p-nitrophenol. Briefly, 100 microliters of p-nitrophenyl phosphate [1 milligram per milliliter in 2 mM MgCl 2, (pH 9.8), 50 mM sodium carbonate] were added to each well. The enzymatic reaction was allowed to proceed 1 hour and then the optical density at 405 nm was determined in a [sequence] spectrophotometer available from Flow Laboratories, Inglewood, Calif.

[1] = test system: rabbit anti-polypeptide antibody to polypeptide P62; assay: Competition ELISA with rabbit anti-polypeptide P62 antibody on solid phase P62; format: binding; conditions: antibody first incubated with competing polypeptide
Experimental: Anti-peptide antibody binding and inhibition studies were carried out by an enzyme-linked immunosorbent assay (ELISA) as described below.
Contact between the wells and antigen-containing solution was maintained for a predetermined time, typically 15 minutes, and at 20 degrees C., to form an antigen-coated solid phase. The solid and liquid phases were separated and the wells were washed three times with BBS.
Rabbit and human sera (body sample aliquots) were assayed for anti-polypeptide activity by adding 100 microliters of a serum diluted 1:20 in BBS per well to form a solid/liquid phase composition. Contact between the diluted sera and the antigen-coated solid phase was maintained for a predetermined time such as 1 hour, and at 20 degrees C., for an immunoreactant to form. The solid and liquid phases were separated, and the solid phase; i.e., antigen-coated, immunoreactant-containing wells, was then washed three times with BBS.

EBNA = assay: Immunoblot of WI-L2 whole cell extracts with rabbit antipeptide antisera, blocking by polypeptide; format: binding, Epstein-Barr virus
Experimental: Exemplary receptor molecules containing antibody combining sites of this invention raised in rabbits to the polypeptides shown in Table 1 were studied using the immunoblotting procedures of Towbin, et. al., Proc. Natl. Acad. Sci., U.S.A., 76:4350-4354 (1979) and Billings, et. al., Proc. Natl. Acad. Sci., U.S.A., 80:7104-7108 (1983). Further details are provided in the Materials and Methods section (III).
Extracts of EBNA producing and non-producing (control) cells were prepared to determine if receptor molecules of this invention were useful for diagnosing EBNA expression. Cells from cultures described hereinabove were washed in phosphate-buffered saline (PBS; 150 mM NaCl, 10 mM sodium phosphate, pH 7.4) containing 0.2 mM phenylmethylsulfonyl fluoride, swollen for 5 minutes in reticulocyte standard buffer (RSB; 10 mM NaCl, 10 mM Tris-HCl, pH 7.4, 1.5 mM MgCl2, 0.2 mM phenylmethylsulfonyl fluoride), and lysed by sonication in 3-5 volumes of RBS adjusted to 0.2-0.35 molar (M) NaCl. After 30 minutes on ice, the sonicate was centrifuged at 10,000×g for 15 minutes to remove cellular debris.
Cell extracts obtained above were assayed for EBNA using human sera known to contain anti-EBNA antibodies or exemplary receptor molecules of this invention. The extracts were either concentrated by precipitation with 2 volumes of ethanol at -20 degrees C. for about 18 hours, and were then dissolved in sample buffer [SB; 10% glycerol, 2% 2-mercaptoethanol, 1% sodium dodecyl sulfate (SDS), 0.002% bromphenol blue, 40 mM Tris-HCl (pH 7.4)] or diluted 1:6 in sample buffer for SDS-polyacrylamide gel electrophoresis (SDS-PAGE). 7.5% Polyacrylamide gels were cast and run according to the procedure of Laemmli, Nature, […] (1970), applying 50 to 200 micrograms of total protein per lane. […]
Anti-peptide antibodies bound to EBNA protein were detected by reacting the blots with an indicating means. […]

[2] = Circular dichroism spectroscopy; format: physicochemical; conditions: 1 mg/ml in phosphate buffered saline
Experimental: The conformational properties of the polypeptides were investigated to elucidate any secondary structure that might be necessary for polypeptide immunoreaction with human anti-EBNA antibodies. The polypeptides were dissolved at a concentration of 1 mg/ml in phosphate-buffered saline (PBS). Spectra were taken using 1 ml samples in a Cary 61 spectropolarimeter (Cary Instruments, Applied Physics Corp., Monrovia, Calif.) interfaced and automated with a Digital Equipment Corporation 11/02 computer (Digital Equipment Corporation, Maynard, Mass.).

C[C@H](NC(=O)CNC(=O)CNC(=O)[C@H](C)NC(=O)CNC(=O)[C@H](C)NC(=O)CNC(=O)CNC(=O)CN)C(=O)NCC(=O)N[C@@H](C)C(=O)NCC(=O)NCC(=O)NCC(=O)NCC(=O)N[C@@H](CCCNC(=N)N)C(=O)O [Polypeptide P60, H--Gly--Gly--Gly--Ala--Gly--Ala--Gly--Gly--Ala--Gly--Ala--Gly--Gly--Gly--Gly--Arg--OH] (H-GGGAGAGGAGAGGGGR-OH)
Reactivity of sera of EBV non-immune donors to polypeptide (anti-EBNA antibodies; 27 EBV non-immune (VCA-) donors): None of the sera displayed significant reactivity | Number of anti-EBNA positive sera positive against (bound to) polypeptide (anti-EBNA antibodies; 91 ACIF anti-EBNA positive sera, 1:20 dilution): 91 | Titer of PSS patients versus normals (anti-EBNA antibodies; Progressive Systemic Schlerosis patients): relatively higher average titer | Reaction of VCA+ sera with polypeptide (anti-EBNA antibodies; clinically normal VCA+ individuals, two dilutions): all of the VCA^+ individuals were positive | Reaction of VCA- sera with polypeptide (anti-EBNA antibodies; panel of 19 VCA- sera): None of the VCA^- sera were found to react positively | OD405 × 10^3 obtained with Patient Antibodies to peptide (anti-EBNA antibodies; MV post-mononucleosis): 162 OD405 × 10^3 | OD405 × 10^3 obtained with Patient Antibodies to peptide (anti-EBNA antibodies; MV pre-mononucleosis): 72 OD405 × 10^3 | OD405 × 10^3 obtained with Patient Antibodies to peptide (anti-EBNA antibodies; SB post-mononucleosis): 115 OD405 × 10^3 | OD405 × 10^3 obtained with Patient Antibodies to peptide (anti-EBNA antibodies; SB pre-mononucleosis): 51 OD405 × 10^3 | OD405 × 10^3 obtained with Patient Antibodies to peptide (anti-EBNA antibodies; VCA+ Normal 1): 154 OD405 × 10^3 | OD405 × 10^3 obtained with Patient Antibodies to peptide (anti-EBNA antibodies; VCA+ Normal 2): 145 OD405 × 10^3 | OD405 × 10^3 obtained with Patient Antibodies to peptide (anti-EBNA antibodies; VCA- Normals (n = 27), average ± one standard deviation): 45 ± 18 OD405 × 10^3 | Inhibition of binding of anti-polypeptide P62 to polypeptide P62 in the solid phase [1]: 81% | Immunoreactivity of anti-P62 serum with the EBNA band after preincubation with polypeptide (EBNA; serum 1:10, 40 ug/ml polypeptide P60, one hour): inhibited | Recognition of EBNA by anti-P60 serum after preincubation with polypeptide (EBNA; serum 1:50, 40 ug/ml polypeptide, one hour): inhibited | Conformation by circular dichroism spectrum [2]: very similar spectra
